# Measurements from patent US20180153830A1, “SELECTIVE INHIBITORS OF UNDIFFERENTIATED CELLS” (Yissum Research Development Company of the Hebrew …, priority 2012, published 2018).
# Key:
# [1] = tested on: spliced isoform sXBP1 in ES-derived differentiated cells; assay: sXBP1 quantitative PCR, differentiated cells; format: cell-based, human; details: 20 μM PluriSIn #1 or 100 nm A939572
# [2] = tested on: embryonic stem cells; assay: Annexin V-FITC apoptosis detection (FACS); format: cell-based, human; details: for apoptosis of undifferentiated cells: 18 hours, 20 μM PluriSIn #1 or 100 nm A939572
# Description: For quantification of apoptosis, an Annexin V-FITC Apoptosis Detection Kit (eBioscience) was used. […] Dissociated cells were suspended at a final concentration of 2-5×10^5 cells/ml, and treated according to the manufacturer's instructions. Analysis was performed using LSR II FACS with FCS Express software.
# The finding of gene expression associated with apoptosis is consistent with previous reports that pluripotent cells are prone to apoptosis [Qin et al., Journal of Biological Chemistry 282:5842-5852 (2007); Momcilovic et al., PloS One 5:e13410 (2010)]. However, pluripotent cells have also been reported to be susceptible to other types of cell death, such as oncosis [Tan et al., Stem Cells 27:1792-1801 (2009)] and autophagy [Alexander et al., PNAS 108:15828-15833 (2011)]. An Annexin V-FITC detection assay and immunoblotting for caspase-3 (a hallmark executioner of apoptosis) were therefore used in order to confirm that the massive hPSC death induced by PluriSIn #1 is indeed apoptosis.
# [3] = tested on: phosphorylated eIF2α in differentiated cells; assay: Phospho-eIF2α immunoblot, differentiated cells; format: cell-based, human; details: 20 μM PluriSIn #1 or 100 nm A939572
# Description: For immunoblotting, 10% polyacrylamide gel was used for protein separation and detection. The gel was transferred to a nitrocellulose membrane and antibody hybridization and chemiluminescence were performed according to standard procedures. The primary antibodies in this analysis were rabbit anti-phosphorylated-eIF2a (1:250, Cell Signaling Technology), rabbit anti caspase-3 (1:1,000, Cell Signaling Technology), mouse anti β-catenin (1:10,000, BD Biosciences) and mouse anti-α-tubulin (1:50,000, Sigma-Aldrich). Horseradish peroxidase-conjugated anti-rabbit and anti-mouse secondary antibodies were obtained from Jackson Immunoresearch Laboratories.
# To further study the significance of UPR, XBP1 mRNA splicing and eIF2α phosphorylation, hallmarks of UPR, were further examined. Human ES cells and ES-derived differentiated cells were treated with PluriSIn #1 for 12 hours, and expression of the spliced isoform sXBP1 was determined by quantitative PCR and by immunoblotting, as described in the Materials and Methods section. Gene expression change conferred by dithiothreitol ([…]) was used as a positive control.
# [4] = tested on: CSES2-SO2/3-derived differentiated cells; assay: Fluorescence microscopy imaging of differentiated CSES2-SO2/3 cells; format: cell-based, human; details: 24 hours of exposure
# Description: (§1) High content imaging of CSES2-SO2/3 fluorescent cells (mCherry+ or EGFP+) was performed in black clear-bottom 384-well assay plates (Falcon BD), using the Opera high-content screen imaging platform (PerkinElmer). Otherwise, light and fluorescence imaging of all cells was performed in 24-well, 6-well or 10 cm CELLSTAR® plates (Greiner Bio-One), using an Olympus CellR imaging station. Light imaging of developing mouse embryos was performed in 35 mm culture dishes (Falcon BD), using an Olympus IX70 microscope.
# (§2) CSES2-SO2/3 is a genetically-labeled cell line that expresses mCherry under the promoter of the pluripotency hallmark gene OCT-4, and GFP under the promoter of the early endodermal marker SOX17. Therefore, these cells are red while undifferentiated, and become green upon their differentiation into the endodermal lineage [Kopper & Benvenisty, Stem Cell Research 8:335-345 (2011)]. Green early endodermal progenitor cells were generated from the red undifferentiated cells, using an 8-day differentiation protocol as described by Duan et al. [Stem Cells 28:674-686 (2010)].
# (§3) In order to further verify the selectivity of the PluriSIns, and rule out any potential assay-related interference, undifferentiated and differentiated CSES2-SO2/3 cells were subjected to microscopy imaging after 24 hours of exposure to PluriSIns.
# [5] = tested on: human ES cells; assay: Global gene expression analysis (microarray); format: cell-based; details: 12 hours
# Description: Human embryonic stem cells, and early endodermal progenitors derived from human embryonic stem cells, were treated for 12 hours with the compounds PluriSIn #1 (isonicotinic acid N′-phenylhydrazide) or PluriSIn #6 (2-hydroxy-2-(thiophen-2-yl)-2-phenylacetic acid 4-methyl-N′-phenylhydrazide), or with 0.2% DMSO control. Total RNA was extracted using a PerfectPure™ RNA Cultured Cell Kit (5 Prime) according to the manufacturer's protocol, and analyzed using a Human Genome U133A 2.0 microarray platform (Affymetrix); washing and scanning were performed according to the manufacturer's protocol. Original microarray data are accessible at the NCBI Gene Expression Omnibus (GEO) database under the accession number GSE37040.
# Arrays were normalized using the MASS algorithm in the Affymetrix Expression Console. Probe sets absent in both control and treatment conditions were filtered out by the MASS Absent/Present call. Probe sets with expression values lower than 50 were raised to this level. Using a 2-fold threshold, a list of differentially expressed genes was comprised for each pair of conditions: embryonic stem cells treated with PluriSin #1 vs. control, ESCs treated with PluriSIn #6 vs. control, and endodermal progenitor cells treated with PluriSIn #1 vs. control. […]
# [6] = tested on: undifferentiated CSES2-SO2/3 embryonic stem cells; assay: Fluorescence microscopy imaging of undifferentiated CSES2-SO2/3 cells; format: cell-based, human; details: for effect on undifferentiated cells: 24 hours of exposure
# Description: as §1, §2, §3
SMILES,"expression of spliced isoform sXBP1, differentiated cells [1]",apoptosis of undifferentiated cells [2],"levels of phosphorylated eIF2α, differentiated cells [3]",effect on differentiated cells [4],gene expression changes associated with ER stress and UPR [5],"increase in number of apoptotic cells ([2]; 20 μM, 16 hours post-treatment)",effect on undifferentiated cells [6],effect on undifferentiated cells in a mixture of differentiated and undifferentiated cells ([6]; mixture of CSES2-SO2/3 ES and derived differentiated cells)
"CNC(=O)c1cccc(NC(=O)N2CCC(Oc3ccccc3Cl)CC2)c1 [A939572, 4-(2-chlorophenoxy)-N-(3-(methylcarbamoyl)-phenyl)piperidine-1-carboxamide, reference compound]",did not increase expression,enhanced apoptosis,did not increase levels,,,,,
"O=C(NNc1ccccc1)c1ccncc1 [PluriSIn #1, isonicotinic acid N′-phenylhydrazide]",did not increase,enhanced apoptosis,did not increase levels,without exhibiting any detectable effect,considerable gene expression changes,approximately 7 fold,eliminated undifferentiated cells,also eliminated undifferentiated cells
"Cc1ccc(NNC(=O)C(O)(c2ccccc2)c2cccs2)cc1 (centres unmarked) [PluriSIn #6, 2-hydroxy-2-(thiophen-2-yl)-2-phenylacetic acid 4-methyl-N′-phenylhydrazide]",,,,without exhibiting any detectable effect,considerable gene expression changes,,eliminated the red undifferentiated cells,
